# “Also recorded” adds a separate entry of the source.
# Legend:
# [1] = system: Madin-Darby Canine Kidney (MDCK) cells; format: cell-based
# Protocol: FIG. 19 depicts representative images of GSK3I-mediated proliferation in serum-starved MDCK cells. Cells were initially cultured in the presence of 10% fetal bovine serum (FBS) and then switched to serum-free media for 24 hours prior to the addition of 0.2% serum-containing media which included GSK3Is at the indicated concentrations in the presence of 10 μM EdU. Cells were cultured an additional 48 h prior to fixation and visualization of EdU-positive nuclei (green) via conjugation of AlexaFluor488 azide in a copper-catalyzed cycloaddition (“Click” reaction, Click-iT Edu, Life Technologies). Total nuclei were stained with DAPI (blue). NC, normal control or untreated cells cultured in the presence of 10% FBS throughout the experimental time course.
# EdU-positive nuclei from imaged fields of MDCK cells cultured as described in FIG. 13 were quantified using ImageJ software (NIH) and graphed as the averaged percentile of the number of EdU-positive cells relative to the total number of DAPI-stained nuclei in each field. A minimum of four fields of cells for each experimental condition were included in this analysis. (* and ***, p<0.05 and 0.001, respectively, for statistically significant increases in EdU-positive nuclei relative to untreated, serum-starved controls).
# Tideglusib was procured from Cayman Chemical Company and performed a dose curve analysis under serum starvation conditions with Madin-Darby Canine Kidney (MDCK) cells in parallel with a series of commercially-available GSK3 inhibitors to ascertain its relative proliferative potential under mitotically-suppressed conditions in this well-established mammalian epithelial cell line. In these experiments, MDCK cells were cultured under serum starvation conditions for 24 hours prior to culturing cells for 48 hours in the presence of GSK3 inhibitors and 10 μM EdU (5-ethynyl-2′-deoxyuridine), a nucleoside analog that permanently marks cells that have undergone DNA replication.
# [2] = system: neonatal murine utricular maculae; assay: BIO, siHes1 and GSI in neomycin-damaged utricle cultures; format: cell-based, CD1 mice; conditions: NEO-ablated utricles; BIO 2.5 μM, 20 nM Hes1 siRNA, GSI 5 μM
# Protocol: To assess whether BIO can enhance the therapeutic efficacy of Hes1 siRNA in regenerating HCs following a toxic insult, neonatal murine utricular tissues were exposed to neomycin (NEO) and then either left untreated or were treated with one or both of the therapeutic agents. After a total of 8 days in vitro, tissues were fixed and labeled with the HC marker, Myo7a. ###, p<0.001 difference in Myo7a-postive cells relative to untreated controls. *, **, and ***, p<0.05, 0.01, and 0.001, respectively, with respect to significant differences in the number of Myo7a-postive cells between treatment groups.
# Organotypic cultures from murine utricular maculae (balance organ sensory epithelia) were cultured and then harvested on postnatal day 3 (P3) from CD1 mice. These explants were then cultured in appropriate media for twenty-four hours. […] All cultures were then maintained in media without either of the test agents for a final 24 h, after which tissues were fixed in 4% paraformaldehyde solution and subjected to immunolabeling with an antibody against the hair cell marker, myosin VIIa (Myo7a), and an appropriate secondary antibody for subsequent immunofluorescence-mediated quantification of HCs along the length of the cochlear spiral (FIGS. 14-17).
# [3] = system: Hes1 transcript in IMO-2B1 murine inner ear cell line; assay: Hes1 knockdown efficiency by RT-qPCR, transfected siHES1 molecules; format: cell-based; conditions: IMO-2B1, RNAiMAX, 48 hours after transfection
# From the text: FIG. 27 depicts reverse transcription-quantitative polymerase chain reaction (RT-qPCR) results from comparative dose curve analyses of Hes1 knockdown efficiency relative to mock-treated controls in a murine inner ear cell line (IMO-2B1), using two distinct siHES1 molecules with conserved target sites among mammalian Hes1 transcripts. SiRNA molecules were transfected into sub-confluent wells of IMO-2B1, using a commercial transfection agent (RNAiMAX, ThermoFisher Sci.). Forty-eight hours after transfection, total RNA was isolated and subjected to RT-qPCR analyses, using primers against Hes1 and the house keeping gene GAPDH. Relative Hes1 levels were determined by the 2^−ΔΔCT method (See Livak and Schmittgen (2001) Methods 25(4):402-408, incorporated by reference in its entirety). The apparent potency of molecule #7 for depleting Hes1 transcript levels was considerably greater than that of molecule #1, as optimal knockdown using molecule #7 was observed using as little as 2 nM siRNA (relative to ˜20 nM required for molecule #1).
# [4] = system: organotypic cultures of murine OCs; assay: Hair cell counts in neomycin-damaged OC cultures treated with TIDE and/or siHES1 lipofection complexes; format: cell-based; conditions: for Hair Cell Counts ± SEM, Mid-apical turn / Hair Cell Counts ± SEM, Middle Turn: neomycin 0.7 mM 24 h, 10.0 μM TIDE, siHES1 20 nM lipofection complexes (FIG. 22)
# Protocol: (§1) FIG. 22 depicts hair cells (Myo7a+ cells) quantified from the mid-apical and middle regions of organotypic cultures of murine OCs following a 24 h exposure to neomycin (0.7 mM) and subsequent recovery in the presence or absence of the GSK3 inhibitor Tideglusib (TIDE) and/or siHES1 (20 nM) lipofection complexes (JetSI, Polyplus).
# as §1, with “23” for “22”
# as §1, with “25” for “22”, “mid-apical, middle,” for “mid-apical”, “mid-basal” for “middle”, “Polyplus). One set of NEO-ablated OCs were treated with TIDE then siHes1 in the presence of 2 ng/mL FGF-2 as a media supplement with the aim of potentially enhancing the effects of Tideglusib.” for “Polyplus).”
# The protocol described above for BIO is used, substituting the addition of BIO for 10.0 μM Tideglusib (TIDE). A third treatment group is added, where Tideglusib is included in the culture medium after siHes1, parallel to the other protocols: on P4 or P5 (depending on whether there was an ototoxic insult to simulate hair cell loss) the control media is added with or without the inclusion of 10.0 μM TIDE; on P7 siHes1 is added in the presence of absence of TIDE; and on P9 10.0 μM Tideglusib is included in the media for a subset of cultures. On P11, all media is replaced with fresh media without any therapeutics. On P12, the tissues are fixed for immunolabeling. An example of comparative analyses from this treatment paradigm, following an exposure to the ototoxic aminoglycoside, NEO, is depicted in FIG. 22.
# This experimental paradigm was again repeated adding additional treatment groups where FGF-2 was optionally included in the culture medium at 2 ng/mL at P5, P7, and P9 for a subset of cultures.
# [5] = system: postnatal (P3) murine (CD1) OC explants; assay: siHes1 NPs with Tideglusib in neomycin-ablated OC explants; format: cell-based
# Protocol: Postnatal (P3) murine (CD1) OC explants were exposed to the ototoxic aminoglycoside, neomycin, for 24 h and then treated with 60 nM siHes1 NP alone; the GSK3 inhibitor, Tideglusib (TIDE), alone (2 μM); or a combination of 60 nM siHes1 NP with escalating doses of Tideglusib (0.5, 2, or 10 μM) for 6d prior to fixation and immunolabeling against the HC-specific marker, Myo7a. Middle turn as fixed reference among images shown.
# NEO-ablated OCs were treated with a suboptimal (60 nM) dose of siHes1 NPs either alone or in combination with escalating doses of TIDE. […] The sustained release profile of siHes1 NPs mimics staged application of the two therapeutics.
# Applicants hypothesized that the delayed, yet sustained, release of siHes1 from biocompatible PLGA NPs would recapitulate the therapeutic attributes of staged application of a GSK3 inhibitor and siRNA against Hes1 when the two drugs were co-administered. To test this hypothesis, a sub-maximal efficacious dose (60 nM) of siHes1 NPs with escalating doses (0.5, 2, and 10 μM) of the GSK3I, tideglusib, in order to have sufficient experimental margin were used to assess a regenerative dose-response profile in organotypic cultures of neomycin (NEO)—exposed organs of Corti (OCs). Using this paradigm, NEO-ablated OCs were subsequently cultured with siHes1 NPs alone or in combination with Tideglusib over the course of six days prior to fixation and immunohistological analyses.
# [6] = system: sensory epithelial region of postnatal day 3 OCs; assay: EdU-labeling of mitotically-active cells in postnatal organ of Corti; format: cell-based; conditions: 0.5 or 2.0 μM, 72 hours, vs vehicle
# Protocol: FIG. 21 depicts EdU-labeling of mitotically-active cells in the postnatal organ of Corti in response to Tideglusib treatment. Postnatal day 3 OCs were harvested and cultured in vitro for 24 hours prior to the addition of culture media containing 10 μM EdU in the presence of either vehicle alone (DMSO) or tideglusib (TIDE) at a final concentration of 0.5 or 2.0 μM. Organotypic cultures were cultured continuously in the presence of these agents for 72 hours prior to fixation and visualization of EdU-positive nuclei as described above. Images of the middle turn of the OC from each group are shown. Brackets denote the sensory epithelial region in each image.
# A targeted pilot experiment was conducted in which postnatal OCs were cultured continuously for 72 hours in the presence of EdU and either tideglusib or vehicle alone to assess whether the GSK3 inhibitor was capable of inducing a mitotic response in the sensory epithelial region of the OC. […] Follow-up analyses will indicate whether this tideglusib-induced proliferative response in the OC involves supporting cells, hair cells, or both, using cell type-specific markers.
compound,measurement,setting,value
"O=C1Nc2cc(Br)ccc2/C1=C1/Nc2ccccc2/C1=N\O [BIO, 6-bromoindirubin-3′-oxime]",proliferative response (EdU-positive nuclei),"[1]; serum-starved MDCK, 48 h, across dose range tested (up to 10 μM)",reduced numbers of EdU-positive nuclie
same,HC numbers (Myo7a-positive cells) in striolar/extrastriolar region,[2],increased HC numbers within the striolar region
Cc1c[nH]c(-c2cnc(NCCNc3ccc(C#N)cn3)nc2-c2ccc(Cl)cc2Cl)n1 [CHIR-99021],number of EdU-positive nuclei,"[1]; 10 μM, relative to untreated serum-starved cells","statistically insignificant relative to untreated, serum-starved cells"
same,mitotically-active cells (EdU-positive nuclei),"[1]; low-dose (0.1 μM), serum starvation","robust, statistically-significant increase in mitotically-active cells"
"Molecule 7: siRNA, human Hes1 mRNA nt 673-691, SEQ ID NO: 13 and 14 (chain 1 ACUGCAUGACCCAGAUCAA; chain 2 UUGAUCUGGGUCAUGCAGU; listed as RNA, chemistry not given here)",siRNA concentration for optimal Hes1 knockdown,[3],2 nM
"C[C@H](NC(=O)Cc1cc(F)cc(F)c1)C(=O)N[C@@H]1C(=O)N(C)c2ccccc2-c2ccccc21 [GSI, deshydroxy LY 411575]",HC numbers (Myo7a-positive cells) in striolar/extrastriolar region,[2],increased HC numbers within the striolar region
"NC[C@@H]1O[C@H](O[C@H]2[C@@H](O)[C@H](O[C@@H]3[C@@H](O)[C@H](N)C[C@H](N)[C@H]3O[C@H]3O[C@H](CN)[C@@H](O)[C@H](O)[C@H]3N)O[C@@H]2CO)[C@H](N)[C@@H](O)[C@@H]1O [NEO alone, neomycin]","Hair Cell Counts ± SEM, Mid-apical turn",[4],5.1 ± 1.1
same,"Hair Cell Counts ± SEM, Middle Turn",[4],2.5 ± 0.8
"O=c1sn(-c2cccc3ccccc23)c(=O)n1Cc1ccccc1 [TIDE, tideglusib]","Hair Cell Counts ± SEM, Mid-apical turn",[4],9.1 ± 1.6
same,"Hair Cell Counts ± SEM, Middle Turn",[4],2.8 ± 0.8
same,"siHes1 NP regenerative efficacy, middle turn","[5]; 10 μM Tideglusib with 60 nM siHes1 NPs, relative to siHes1 NPs alone",statistically-significant increases
same,"siHes1 NP regenerative efficacy, basal turn","[5]; 2 and 10 μM Tideglusib with 60 nM siHes1 NPs, relative to siHes1 NPs alone",statistically-significant increases
same,HC numbers / densities with combined treatment,"[5]; NEO-ablated OCs, 60 nM siHes1 NP plus Tideglusib 0.5, 2 or 10 μM, 6 d",concentration-dependent enhancement of siHes1 NP-induced hair cell (HC) regeneration
same,regenerative response (HC numbers),"[5]; Tideglusib alone (2 μM), NEO-ablated OCs",did not induce a statistically significant regenerative response
same,"siHes1 NP regenerative efficacy, mid-apical region",[5]; Tideglusib with 60 nM siHes1 NPs vs siHes1 NPs alone,no statistically-significant differences between the treatment groups
same,mitotic response (EdU-positive nuclei) in sensory epithelial region,[6],greater incidence of EdU-positive nuclei; also recorded: markedly greater mitotic response in the sensory epithelial region
"Molecule 1: siRNA, murine Hes1 mRNA nt 239-257, SEQ ID NO: 1 and 2 (chain 1 CAGCUGAUAUAAUGGAGAATT; chain 2 UUCUCCAUUAUAUCAGCUGTT; chemistry not given here)",siRNA concentration for optimal Hes1 knockdown,[3],~20 nM
FGF-2: basic fibroblast growth factor used as media supplement,effect of FGF-2 media supplement on HC regeneration,"[4]; 2 ng/mL FGF-2, NEO-ablated OCs, with or without TIDE then siHes1",did not elicit a therapeutic response on its own; also recorded: potentiated the therapeutic effects of TIDE/siHES1 treatment through the mid-basal turn of the OC
"[Cl-].[Li+] [LiC1, lithium chloride]",EdU-positive cells,"[1]; 10 mM, relative to identical dose of sodium chloride",increased numbers of EdU-positive cells

# Reference: US11013752B2, “Combination therapies for inner ear sensory hair cell regeneration/replacement” (Hough Ear Institute, priority 2016, dated 2021)
